Test results as given in patent US8828993B2, “Psychotropic agents having glutamate NMDA activity” (Ramot At Tel-Aviv University Ltd., priority 2006, dated 2014).
Structures can show the parent of a compound that is named as a salt.

How the values were obtained:
rats = experiment: Morris Water Maze, spatial cognition; assay type: in vivo
Experimental: (§1) The Morris Water Maze is a well known test aimed to assess spatial cognitive tasks (Anger, et al., Animal test systems to study behavioral dysfunctions of neurodegenerative disorders, Neurotoxicology, 12, 403-13 (1991)). The maze consists of a circular pool measuring 1.80 m in diameter 60 cm in height. The pool was filled with water (21±1° C.) to a depth of 30 cm. A circular hidden escape platform (10 cm in diameter) was placed just below the water surface. The test room contained several permanent extra maze cues such as the rat housing rack, laboratory table, posters on the walls, etc.
as §1, with “tasks.” for “tasks (Anger, et al., Animal test systems to study behavioral dysfunctions of neurodegenerative disorders, Neurotoxicology, 12, 403-13 (1991)).”
In the experiment rats were given Compound 1 orally on day 1 and the first test begun 90 minute later, six trials per day, for 3 consecutive days, to find the hidden platform (acquisition phase). The escape latency, i.e., the time required by the rat to find and climb onto the platform, was recorded for up to 120 sec. Each rat was allowed to remain on the platform for 30 sec, after which it was removed to its home cage.
A video camera was placed above the center of the pool for tracking the rat, and a video tracking system (Noldus) with online digital output directly fed data into a computer. Data were analyzed using EthoVision automated tracking system software (Noldus).

human glioma U83 cell = conditions: 24 h
Experimental: Determination of cell viability was performed in cells (10,000/well) using neutral red method. Absorption of neutral red by lysosomes caused coloring of living cells. Quantitative analysis was performed by colorimetric assay (ELISA reader at 550 nm).

`COC(=O)C(N)CN1CCN(C2=Nc3ccccc3Nc3sc(C)cc32)CC1` (stereo not shown) [Compound 1, 2-amino-3-[4-(2-methyl-10H-thieno[2,3-b][1,5]benzodiazepin-4-yl)-piperazin-1-yl]-propionic acid, methyl ester hydrochloride salt] was tested, and the “latency to platform (task execution)” value (rats; 20 mg/kg po, second day) was “improvement”, the “latency to platform (learning of the spatial task)” value (rats; rats, 20 mg/kg po on day 1, first day) was “faster learning” and the latency to platform (rats; rats, 10 and 20 mg/kg po, third day, between all groups) was “no difference”. For the same compound, the “concentration toxic to human glioma cells (not toxic up to)” value (human glioma U83 cell) was over 100 µM.
